# Key:
# wheat = assay: Test B postemergence herbicide test; assay type: in vivo, Triticum aestivum; parameters: key to Wheat plant response rating: 0 = no effect, 100 = complete control; conditions: postemergence
# Outline: (§1)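 Visual ratings, 0 (no effect) to 100 (complete control), made versus controls after 13–15 d greenhouse. Paddy plants treated at 2-leaf stage; postemergence plants at 1- to 4-leaf stage, 2–18 cm tall.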
# pigweed = assay: Test B pre-/postemergence herbicide test; assay type: in vivo, Amaranthus retroflexus; conditions: for Pigweed plant response rating: postemergence
# Outline: (§2)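 Test chemicals in a non-phytotoxic solvent mixture with surfactant were applied preemergence to seeded species and postemergence to plants 2-18 cm tall (1- to 4-leaf stage); rice and barnyardgrass were also tested in a flooded paddy at the 2-leaf stage. Visual rating versus controls after 13-15 days in greenhouse, scale 0 (no effect) to 100 (complete control).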
# Surinam grass = assay: Test B pre-/postemergence herbicide test; assay type: in vivo, Urochloa decumbens; conditions: for Surinam Grass plant response rating: postemergence
# Outline: as §2
# morningglory = assay: Test B pre-/postemergence herbicide test; assay type: in vivo, Ipomoea coccinea; conditions: for Morningglory plant response rating: postemergence
# Outline: (§3)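 Herbicidal effect was judged by eye on a 0–100 scale after plants stood 13 to 15 days in the greenhouse following pre- or postemergence treatment with surfactant-containing formulations.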
# rice [1] = assay: Test B flooded paddy test; assay type: in vivo, Oryza sativa; conditions: 1000 g ai/ha, scale 0 to 100 (0 no effect, 100 complete control)
# Outline: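 Paddy species grown to the 2-leaf stage under flooding; blackgrass sprayed postemergence at 2–18 cm (1- to 4-leaf stage). Plants kept in a greenhouse for 13 to 15 days, then visually rated against controls on 0 (no effect) to 100 (complete control).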
# lambsquarters = assay: Test B pre-/postemergence herbicide test; assay type: in vivo, Chenopodium album; conditions: for Lambsquarters plant response rating: postemergence
# Outline: as §2
# corn = assay: Test B pre-/postemergence herbicide test; assay type: in vivo, Zea mays; conditions: for Corn plant response rating: postemergence
# Outline: as §2
# cocklebur = assay: Test B pre-/postemergence herbicide test; assay type: in vivo, Xanthium strumarium; conditions: for Cocklebur plant response rating: postemergence
# Outline: as §3
# giant foxtail = assay: Test B pre-/postemergence herbicide test; assay type: in vivo, Setaria faberi; conditions: for Foxtail, Giant plant response rating: postemergence
# Outline: as §2
# ducksalad [2] = assay: Test B flooded paddy test; assay type: in vivo, Heteranthera limosa; conditions: 1000 g ai/ha, scale 0 to 100 (0 no effect, 100 complete control)
# Outline: (§4)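 Treated at 2-leaf (paddy) or 1–4-leaf, 2–18 cm (postemergence); greenhouse 13–15 d; visual score vs control, 0 none to 100 complete control; dash = not tested.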
# velvetleaf = assay: Test B pre-/postemergence herbicide test; assay type: in vivo, Abutilon theophrasti; conditions: for Velvetleaf plant response rating: postemergence
# Outline: as §2
# rice [3] = assay: Test C flooded paddy test; assay type: in vivo, Oryza sativa
# Outline: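 Plants were grown to the 1- to 4-leaf stage (2–18 cm) and then treated postemergence, or grown to the 2-leaf stage for the flooded paddy test. They were held in a greenhouse for 12 to 14 days and then scored by eye against controls, where 0 is no effect and 100 is complete control.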
# [4] = test system: small flower umbrella sedge; assay: Test B flooded paddy test; assay type: in vivo, Cyperus difformis; conditions: 1000 g ai/ha, scale 0 to 100 (0 no effect, 100 complete control)
# Outline: as §4
# blackgrass = assay: Test B postemergence herbicide test; assay type: in vivo, Alopecurus myosuroides; conditions: postemergence
# Outline: as §4
# barnyardgrass [5] = assay: Test B pre-/postemergence herbicide test; assay type: in vivo, Echinochloa crus-galli; conditions: for Barnyardgrass plant response rating: postemergence
# Outline: as §3
# wild oat = assay: Test B postemergence herbicide test; assay type: in vivo, Avena fatua; conditions: postemergence
# Outline: as §1
# barnyardgrass [6] = assay: Test C flooded paddy test; assay type: in vivo, Echinochloa crus-galli
# Outline: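 Injury scored visually against controls on a 0 (no effect) to 100 (complete control) scale, 12 to 14 days after treatment in greenhouse. Flooded paddy plants treated at 2-leaf stage; postemergence plants at 1- to 4-leaf stage, 2 to 18 cm tall.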
# barnyardgrass [7] = assay: Test B flooded paddy test; assay type: in vivo, Echinochloa crus-galli; conditions: 1000 g ai/ha, scale 0 to 100 (0 no effect, 100 complete control)
# Outline: as §4
# [8] = test system: smallflower umbrella sedge; assay: Test C flooded paddy test; assay type: in vivo, Cyperus difformis
# ducksalad [9] = assay: Test C flooded paddy test; assay type: in vivo, Heteranthera limosa
# large crabgrass = assay: Test B pre-/postemergence herbicide test; assay type: in vivo, Digitaria sanguinalis; conditions: for Crabgrass, Large plant response rating: postemergence
# Outline: as §2
# [10] = 125 g ai/ha, visual rating, scale 0 (no effect) to 100 (complete control)
# [11] = 500 g ai/ha, scale 0 to 100, 0 is no effect, 100 is complete control
# [12] = 125 g ai/ha, 0 is no effect, 100 is complete control, preemergence
# [13] = 500 g ai/ha, visual rating, 0 = no effect, 100 = complete control, preemergence
# [14] = 125 g ai/ha, scale 0 to 100 (0 no effect, 100 complete control)
# [15] = 250 g ai/ha, scale of 0 to 100, 0 is no effect, 100 is complete control
# [16] = 500 g ai/ha, visual rating after 12 to 14 days, scale 0 to 100 (0 no effect, 100 complete control)
smiles,measurement,setting,value
CCNC(=S)c1ccc(F)c(NC(=O)c2cc(C(C)(C)C)nn2CC)c1 [Compound 349],Wheat plant response rating,wheat; [10],0
same,Wheat plant response rating,wheat; [11],10
same,"Plant response rating (0 to 100 scale), Pigweed",pigweed; [12],100
same,Pigweed plant response rating,pigweed; [10],0
same,"Plant response rating, Pigweed",pigweed; [13],100
same,Pigweed plant response rating,pigweed; [11],70
same,"Plant response rating (0 to 100 scale), Surinam Grass",Surinam grass; [12],50
same,Surinam Grass plant response rating,Surinam grass; [10],0
same,"Plant response rating, Surinam Grass",Surinam grass; [13],90
same,Surinam Grass plant response rating,Surinam grass; [11],20
same,"Plant response rating (0 to 100 scale), Morningglory",morningglory; [12],0
same,Morningglory plant response rating,morningglory; [10],0
same,"Plant response rating, Morningglory",morningglory; [13],30
same,Morningglory plant response rating,morningglory; [11],50
same,Rice plant response rating,rice [1],70
same,"Plant response rating (0 to 100 scale), Lambsquarters",lambsquarters; [12],100
same,Lambsquarters plant response rating,lambsquarters; [10],0
same,"Plant response rating, Lambsquarters",lambsquarters; [13],100
same,Lambsquarters plant response rating,lambsquarters; [11],80
same,"Plant response rating (0 to 100 scale), Corn",corn; [12],70
same,Corn plant response rating,corn; [10],0
same,"Plant response rating, Corn",corn; [13],80
same,Corn plant response rating,corn; [11],10
same,"Plant response rating (0 to 100 scale), Cocklebur",cocklebur; [12],0
same,Cocklebur plant response rating,cocklebur; [10],0
same,"Plant response rating, Cocklebur",cocklebur; [13],80
same,Cocklebur plant response rating,cocklebur; [11],20
same,"Plant response rating (0 to 100 scale), Foxtail, Giant",giant foxtail; [12],70
same,"Foxtail, Giant plant response rating",giant foxtail; [10],0
same,"Plant response rating, Foxtail, Giant",giant foxtail; [13],100
same,"Foxtail, Giant plant response rating",giant foxtail; [11],30
same,Ducksalad plant response rating,ducksalad [2],90
same,"Plant response rating (0 to 100 scale), Velvetleaf",velvetleaf; [12],30
same,Velvetleaf plant response rating,velvetleaf; [10],0
same,Velvetleaf plant response rating,velvetleaf; [11],40
same,Rice plant response rating,"rice [3]; 62 g ai/ha, scale 0 to 100",50
same,Rice plant response rating,rice [3]; [14],55
same,Rice plant response rating,rice [3]; [15],60
same,"Plant response rating, Rice",rice [3]; [16],70
same,"Sedge, Umbrella plant response rating",[4],80
same,Blackgrass plant response rating,blackgrass; [10],20
same,Blackgrass plant response rating,blackgrass; [11],80
same,"Plant response rating (0 to 100 scale), Barnyardgrass",barnyardgrass [5]; [12],80
same,Barnyardgrass plant response rating,barnyardgrass [5]; [10],0
same,"Plant response rating, Barnyardgrass",barnyardgrass [5]; [13],100
same,Barnyardgrass plant response rating,barnyardgrass [5]; [11],10
same,"Oat, Wild plant response rating",wild oat; [10],10
same,"Oat, Wild plant response rating",wild oat; [11],40
same,Barnyardgrass plant response rating,"barnyardgrass [6]; 62 g ai/ha, scale 0 to 100 (0 no effect, 100 complete control)",45
same,Barnyardgrass plant response rating,barnyardgrass [6]; [14],70
same,Barnyardgrass plant response rating,barnyardgrass [6]; [15],90
same,"Plant response rating, Barnyardgrass",barnyardgrass [6]; [16],95
same,Barnyardgrass plant response rating,barnyardgrass [7],80
same,"Sedge, Umbrella plant response rating","[8]; 62 g ai/ha, scale 0 to 100",80
same,"Sedge, Umbrella plant response rating",[8]; [14],85
same,"Sedge, Umbrella plant response rating",[8]; [15],90
same,"Plant response rating, Sedge, Umbrella",[8]; [16],95
same,Ducksalad plant response rating,"ducksalad [9]; 62 g ai/ha, scale 0 to 100",80
same,Ducksalad plant response rating,ducksalad [9]; [14],85
same,Ducksalad plant response rating,ducksalad [9]; [15],85
same,"Plant response rating, Ducksalad",ducksalad [9]; [16],95
same,"Plant response rating (0 to 100 scale), Crabgrass, Large",large crabgrass; [12],100
same,"Crabgrass, Large plant response rating",large crabgrass; [10],20
same,"Plant response rating, Crabgrass, Large",large crabgrass; [13],100
same,"Crabgrass, Large plant response rating",large crabgrass; [11],20

# Reference: patent publication US20060069132A1, “Azolecarboxamide herbicides” (priority 2004, published 2006)
